Key:
[1] = target: T1, recombinant feline FP receptor (Felis catus, UniProt A0ABI7XJ69); assay: Total inositol phosphate accumulation, HEK-293 cells with recombinant feline FP receptor; format: cell-based, cat; conditions: read-out: E.C.50, total inositol phosphate accumulation
Protocol: Ten days after transfection, hygromycin B resistant clones were individually selected and transferred to a separate well on a 24 well plate. At confluence each clone was transferred to one well of a 6 well plate, and then expanded in a 10 cm dish. Cells were maintained under continuous hygromycin selection until use. The stable cat FP receptor transfectants were similarly prepared using […]. Again cells were grown to 50-60% confluency on 10 cm plates and the plasmid pCEP4, incorporating cDNA inserts for the feline FP receptor, was transfected using lipofectin. Hygromycin B selection was started 48 hr post-transfection. Eight days after transfection, hygromycin B resistant clones were selected and transferred to 24 well plates. Ca^2+ signaling studies on recombinant cat and human FP receptors were performed in an identical manner to that described for the CRL 1497 cell studies.
Receptor-mediated phosphoinositide (PI) hydrolysis was determined by measuring the accumulation of total inositol phosphates (IP) in cells preincubated with ^3H-myoinositol. Stable cell lines of HEK 293 cells expressing human or cat FP receptors were plated in 10 cm dishes (10^6 cells per dish in DMEM with 10% FBS). […] The eluate was mixed with 10 ml Aquasol scintillation fluid (Packard Instrument Co.) and total [^3H] inositol phosphates was determined by a liquid scintillation counter.

[2] = target: T1, recombinant feline FP receptor; assay: Radioligand binding competition vs 3H-17-phenyl PGF2α, recombinant feline FP receptor; set-up: species or system cat
Protocol: Plasma membrane preparations of HEK 293 cells stably transfected with the human or feline FP receptor were obtained as follows. Cells washed with TME buffer were scraped from the bottom of the flasks and homogenized for 30 sec using a Brinkman PT 10/35 polytron. TME buffer was added as necessary to achieve a 40 ml volume in the centrifuge tubes. […] The cell homogenate was centrifuged at 19,000 rpm for 20 min at 4-6° C. using a Beckman Ti-60 rotor. The pellet was then resuspended in TME buffer to provide a final protein concentration of 1 mg/ml, as determined by Biorad assay. […] Incubations were for 60 min at 25° C. and were terminated by the addition of 4 ml of ice-cold 50 mM TRIS-HCl followed by rapid filtration through Whatman GF/B filters and three additional 4 ml washes in a cell harvester (Brandel).

human FP receptor [3] = target: T2, human FP receptor (Homo sapiens, UniProt P43088); assay: Total inositol phosphate accumulation, HEK-293 cells with recombinant human FP receptor; format: cell-based; set-up: expressed in transfected cells; conditions: for % maximal total inositol phosphate accumulation mean χ ± SEM: reference 17-phenyl PGF2α 10^−6 M
Protocol: HEK-293 cells were grown in DMEM with 10% fetal bovine serum (FBS), 250 μg ml^−1 G418 (Life Technologies) and 200 μg ml^−1 gentamicin or penicillin/streptomycin. […] For transfection, the cells were grown to 50-60% confluency on 10 cm plates. The plasmid pCEP4 incorporating cDNA inserts for the human FP receptor (20 μg) was added to 500 μl of 250 mM CaCl2. HEPES buffered saline×2 (2×HBSS, 280 mM NaCl, 20 mM HEPES acid, 1.5 mM Na2 HPO4, pH 7.05-7.12) was then added dropwise to a […], with continuous vortexing at room temperature. After 30 min, 9 ml DMEM were added to the mixture. The DNA/DMEM/calcium phosphate mixture was then added to the cells, which had been previously rinsed with 10 ml phosphate buffered saline (PBS). The cells were then incubated for 5 h. at 37° C. in humidified 95% air/5% CO2. The calcium phosphate solution was then removed and the cells were treated with 10% glycerol in DMEM for 2 min. The glycerol solution was then replaced by DMEM with 10% fetal bovine serum (FBS). The cells were incubated overnight and the medium was replaced by DMEM/10% FBS containing 250 μg ml^−1 G418 and penicillin/streptomycin. The following day hygromycin B was added to a final concentration of 200 μg ml^−1.
Receptor-mediated phosphoinositide (PI) hydrolysis was determined by measuring the accumulation of total inositol phosphates (IP) in cells preincubated with ^3H-myoinositol. Stable cell lines of HEK 293 cells expressing human or cat FP receptors were plated in 10 cm dishes (10^6 cells per dish in DMEM with 10% FBS). The following day, the cells were incubated with 18 μCi myo-[2 ^3H] inositol (Amersham; […]) in 6 ml of DMEM with 10% FBS for 24 hours at 37° C. The cells were then rinsed twice with phosphate buffered saline (PBS), incubated for 5 min with 1 ml of trypsin-EDTA, and suspended in 10 ml DMEM containing 25 mM HEPES buffer. Cells were pelleted at 1000 rpm and resuspended in DMEM/25 mM HEPES containing 10 mM LiCl for 10 minutes. Aliquots of 200 μl cell suspension were incubated with 50 μl drug for 30 minutes at 37° C. (duplicate determination), and agonist stimulation was terminated with a 750 μl mixture of chloroform:methanol:4N HCl (100:200:2), followed by addition of 250 μl of chloroform and 0.5 N HCl for extraction of inositol phosphates. A 750 μl volume of the aqueous layer was loaded on columns packed with 0.5 ml of Dowex AG 1-X8 anion-exchange resin (formate form, 100-200 mesh; BioRad) to separate radiolabeled components. The elution procedure consisted of three 3 ml washes with 5 mM inositol, then two elutions with 750 μl of 1.3 M ammonium formate with 0.1 M formic acid. The eluate was mixed with 10 ml Aquasol scintillation fluid (Packard Instrument Co.) and total [^3H] inositol phosphates was determined by a liquid scintillation counter.

human FP receptor [4] = target: T2, human FP receptor; assay: Radioligand binding competition vs 3H-17-phenyl PGF2α, recombinant human FP receptor; set-up: expressed in transfected cells; conditions: for % specific binding mean χ ± SEM: vs 5nM 3H-17-phenyl PGF2α, n = 3
Protocol: Plasma membrane preparations of HEK 293 cells stably transfected with the human or feline FP receptor were obtained as follows. Cells washed with TME buffer were scraped from the bottom of the flasks and homogenized for 30 sec using a Brinkman PT 10/35 polytron. TME buffer was added as necessary to achieve a 40 ml volume in the centrifuge tubes. TME is comprised of 100 mM TRIS base, 20 mM Mg Cl2, 2 m EDTA; physiological pH is achieved by adding 10 N HCl. The cell homogenate was centrifuged at 19,000 rpm for 20 min at 4-6° C. using a Beckman Ti-60 rotor. The pellet was then resuspended in TME buffer to provide a final protein concentration of 1 mg/ml, as determined by Biorad assay. Radioligand binding assays were performed in a 200 μl volume.
Incubations were for 60 min at 25° C. and were terminated by the addition of 4 ml of ice-cold 50 mM TRIS-HCl followed by rapid filtration through Whatman GF/B filters and three additional 4 ml washes in a cell harvester (Brandel).

T1 sequence (A0ABI7XJ69 entry or part of it): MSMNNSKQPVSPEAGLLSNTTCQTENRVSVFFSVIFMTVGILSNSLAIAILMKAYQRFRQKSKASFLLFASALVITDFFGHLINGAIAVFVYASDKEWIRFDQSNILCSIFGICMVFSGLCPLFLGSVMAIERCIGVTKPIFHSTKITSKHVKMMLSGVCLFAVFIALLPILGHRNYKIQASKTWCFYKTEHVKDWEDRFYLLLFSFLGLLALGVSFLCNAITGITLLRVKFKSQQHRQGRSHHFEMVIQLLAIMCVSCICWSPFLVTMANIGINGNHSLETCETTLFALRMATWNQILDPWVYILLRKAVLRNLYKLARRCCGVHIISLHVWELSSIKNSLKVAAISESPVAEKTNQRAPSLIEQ
T2 sequence (P43088 whole entry): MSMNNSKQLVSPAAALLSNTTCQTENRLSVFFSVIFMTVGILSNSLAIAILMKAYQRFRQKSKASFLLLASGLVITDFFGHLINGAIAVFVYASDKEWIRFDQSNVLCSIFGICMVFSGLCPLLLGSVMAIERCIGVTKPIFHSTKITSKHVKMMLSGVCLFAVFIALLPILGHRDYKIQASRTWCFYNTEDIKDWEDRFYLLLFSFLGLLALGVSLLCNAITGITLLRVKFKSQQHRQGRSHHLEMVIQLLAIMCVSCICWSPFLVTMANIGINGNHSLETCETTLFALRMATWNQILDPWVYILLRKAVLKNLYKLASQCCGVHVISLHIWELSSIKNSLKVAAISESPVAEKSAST

- EC50 [1]: 9 nM
- affinity for the feline receptor ([2]; radioligand binding): high affinity
- IC50 ([2]; vs 5 nM 3H-17-phenyl PGF2α, feline FP receptor, read-out: inhibitory concentration50 (I.C.50), radioligand binding): 43.5 nM
- % maximal total inositol phosphate accumulation mean χ ± SEM (human FP receptor [3]; 10^−6 M): 100 ± 1.3%
- % maximal total inositol phosphate accumulation mean χ ± SEM (human FP receptor [3]; 10^−7 M): 92.3 ± 0.9%
- % maximal total inositol phosphate accumulation mean χ ± SEM (human FP receptor [3]; 10^−8 M): 57.8 ± 2.0%
- % maximal total inositol phosphate accumulation mean χ ± SEM (human FP receptor [3]; 10^−9 M): 14.7 ± 3.3%
- EC50 (human FP receptor [3]; HEK-293 cells, recombinant human FP receptor, read-out: E.C.50, total inositol phosphate accumulation): 8 nM
- % specific binding mean χ ± SEM (human FP receptor [4]; 10^−5 M): 0 ± 0%
- % specific binding mean χ ± SEM (human FP receptor [4]; 10^−6 M): 1.7 ± 1.7%
- % specific binding mean χ ± SEM (human FP receptor [4]; 10^−7 M): 5.3 ± 1.5%
- % specific binding mean χ ± SEM (human FP receptor [4]; 10^−8 M): 24.0 ± 1.2%
- % specific binding mean χ ± SEM (human FP receptor [4]; 10^−9 M): 65.0 ± 1.0%
- % specific binding mean χ ± SEM (human FP receptor [4]; 10^−10 M): 98 ± 1.1%
- IC50 (human FP receptor [4]; vs 5 nM 3H-17-phenyl PGF2α, human FP receptor, read-out: I.C.50, radioligand binding): 2.3 nM
Structure (SMILES): O=C(O)CCC/C=C\C[C@@H]1[C@@H](/C=C/[C@@H](O)CCc2ccccc2)[C@H](O)C[C@@H]1O [17-phenyl PGF2α, 17-phenyl prostaglandin F2α, reference compound]

Reference: US6395787B1, “Ocular hypotensive lipids” (Allergan Sales, Inc., priority 2000, dated 2002)
